Measured values taken from ChEMBL document CHEMBL1909294, “Translating clinical findings into knowledge in drug safety evaluation--drug induced liver injury prediction system (DILIps)” (PLoS Comput Biol, 2011).

Key:
[1] = system: Hepatotoxicity;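 as to HepSE bilirubinemia: bilirubinemia hepatic side effect score drawn from the DILIps training data, a prediction system for drug-induced liver injury; call rule not given here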;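 as to HepSE cholecystitis: Cholecystitis-related hepatic side effect score drawn from the DILIps (drug-induced liver injury prediction) training data set; call rule not given here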;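 as to HepSE cholelithiasis: hepatic side effect score for cholelithiasis, drawn from the DILIps training data for predicting drug-induced liver injury; call rule not given here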;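 as to HepSE cirrhosis: cirrhosis hepatic side effect score taken from the DILIps (drug-induced liver injury prediction) training set; call rule not given here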;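 as to HepSE elevated liver function tests: hepatic side effect score for raised liver function tests, as recorded in the DILIps training set used for predicting drug-induced liver injury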; as to HepSE hepatic failure: call rule not given here;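 as to HepSE hepatomegaly: hepatic side effect score for hepatomegaly, taken from the training set of the DILIps drug-induced liver injury prediction system; call rule not given here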
[2] = system: Hepatotoxicity; remark: listed apart in the source;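 as to HepSE bilirubinemia: bilirubinemia hepatic side effect score drawn from the DILIps training data, a prediction system for drug-induced liver injury; call rule not given here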;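 as to HepSE cholecystitis: Cholecystitis-related hepatic side effect score drawn from the DILIps (drug-induced liver injury prediction) training data set; call rule not given here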;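 as to HepSE cholelithiasis: hepatic side effect score for cholelithiasis, drawn from the DILIps training data for predicting drug-induced liver injury; call rule not given here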;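 as to HepSE cirrhosis: cirrhosis hepatic side effect score taken from the DILIps (drug-induced liver injury prediction) training set; call rule not given here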;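 as to HepSE elevated liver function tests: hepatic side effect score for raised liver function tests, as recorded in the DILIps training set used for predicting drug-induced liver injury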; as to HepSE hepatic failure: call rule not given here
[3] = system: Hepatotoxicity; remark: listed apart in the source;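 as to HepSE bilirubinemia: bilirubinemia hepatic side effect score drawn from the DILIps training data, a prediction system for drug-induced liver injury; call rule not given here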;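 as to HepSE cholecystitis: Cholecystitis-related hepatic side effect score drawn from the DILIps (drug-induced liver injury prediction) training data set; call rule not given here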;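 as to HepSE cholelithiasis: hepatic side effect score for cholelithiasis, drawn from the DILIps training data for predicting drug-induced liver injury; call rule not given here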;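 as to HepSE cirrhosis: cirrhosis hepatic side effect score taken from the DILIps (drug-induced liver injury prediction) training set; call rule not given here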;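 as to HepSE elevated liver function tests: hepatic side effect score for raised liver function tests, as recorded in the DILIps training set used for predicting drug-induced liver injury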; as to HepSE hepatic failure: call rule not given here
[4] = system: Hepatotoxicity; remark: listed apart in the source;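 as to HepSE bilirubinemia: bilirubinemia hepatic side effect score drawn from the DILIps training data, a prediction system for drug-induced liver injury; call rule not given here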;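 as to HepSE cholecystitis: Cholecystitis-related hepatic side effect score drawn from the DILIps (drug-induced liver injury prediction) training data set; call rule not given here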;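 as to HepSE cholelithiasis: hepatic side effect score for cholelithiasis, drawn from the DILIps training data for predicting drug-induced liver injury; call rule not given here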;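 as to HepSE cirrhosis: cirrhosis hepatic side effect score taken from the DILIps (drug-induced liver injury prediction) training set; call rule not given here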;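 as to HepSE elevated liver function tests: hepatic side effect score for raised liver function tests, as recorded in the DILIps training set used for predicting drug-induced liver injury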; as to HepSE hepatic failure: call rule not given here
[5] = system: Hepatotoxicity; remark: listed apart in the source; as to HepSE hepatic failure: call rule not given here
[6] = system: Hepatotoxicity; remark: listed apart in the source; as to HepSE hepatic failure: call rule not given here
[7] = system: Hepatotoxicity; remark: listed apart in the source
[8] = system: Hepatotoxicity; remark: listed apart in the source
[9] = system: Hepatotoxicity; remark: listed apart in the source
[10] = system: Hepatotoxicity; remark: listed apart in the source
[11] = system: Hepatotoxicity; remark: listed apart in the source
[12] = system: Hepatotoxicity; remark: listed apart in the source
[13] = system: Hepatotoxicity; remark: listed apart in the source
[14] = system: Hepatotoxicity; remark: listed apart in the source

CC(C)CN(C[C@@H](OP(=O)(O)O)[C@H](Cc1ccccc1)NC(=O)O[C@H]1CCOC1)S(=O)(=O)c1ccc(N)cc1 [FOSAMPRENAVIR]
0: HepSE_bilirubinemia [1] | HepSE_cholecystitis [2] | HepSE_cholelithiasis [3] | HepSE_cirrhosis [4] | HepSE_elevated liver function tests [5] | HepSE_hepatic failure [6] | HepSE_hepatic necrosis [7] | HepSE_hepatitis [8] | HepSE_hepatomegaly [9] | HepSE_jaundice [10] | HepSE_liver disease [11] | HepSE_liver fatty [12] | HepSE_liver function tests abnormal [13] | HepSE_Combined Scores [14]

O=C(O)P(=O)(O)O [FOSCARNET]
0: HepSE_bilirubinemia [1] | HepSE_cholecystitis [2] | HepSE_cholelithiasis [3] | HepSE_cirrhosis [4] | HepSE_elevated liver function tests [5] | HepSE_hepatic failure [6] | HepSE_hepatic necrosis [7] | HepSE_hepatitis [8] | HepSE_hepatomegaly [9] | HepSE_jaundice [10] | HepSE_liver disease [11] | HepSE_liver fatty [12] | HepSE_liver function tests abnormal [13] | HepSE_Combined Scores [14]

C[C@@H]1O[C@@H]1P(=O)(O)O [FOSFOMYCIN]
1: HepSE_hepatic necrosis [7] | HepSE_jaundice [10]
0: HepSE_bilirubinemia [1] | HepSE_cholecystitis [2] | HepSE_cholelithiasis [3] | HepSE_cirrhosis [4] | HepSE_elevated liver function tests [5] | HepSE_hepatic failure [6] | HepSE_hepatitis [8] | HepSE_hepatomegaly [9] | HepSE_liver disease [11] | HepSE_liver fatty [12] | HepSE_liver function tests abnormal [13]
2: HepSE_Combined Scores [14]

CCC(=O)O[C@@H](O[P@](=O)(CCCCc1ccccc1)CC(=O)N1C[C@H](C2CCCCC2)C[C@H]1C(=O)O)C(C)C [FOSINOPRIL]
4: HepSE_Combined Scores [14]
0: HepSE_bilirubinemia [1] | HepSE_cholecystitis [2] | HepSE_cholelithiasis [3] | HepSE_cirrhosis [4] | HepSE_elevated liver function tests [5] | HepSE_hepatic necrosis [7] | HepSE_liver disease [11] | HepSE_liver fatty [12] | HepSE_liver function tests abnormal [13]
1: HepSE_hepatic failure [6] | HepSE_hepatitis [8] | HepSE_hepatomegaly [9] | HepSE_jaundice [10]

O=C1NC(c2ccccc2)(c2ccccc2)C(=O)N1COP(=O)(O)O [FOSPHENYTOIN]
1: HepSE_liver function tests abnormal [13] | HepSE_Combined Scores [14]
0: HepSE_bilirubinemia [1] | HepSE_cholecystitis [2] | HepSE_cholelithiasis [3] | HepSE_cirrhosis [4] | HepSE_elevated liver function tests [5] | HepSE_hepatic failure [6] | HepSE_hepatic necrosis [7] | HepSE_hepatitis [8] | HepSE_hepatomegaly [9] | HepSE_jaundice [10] | HepSE_liver disease [11] | HepSE_liver fatty [12]

NC[C@@H]1O[C@H](O[C@H]2[C@@H](O)[C@H](O[C@@H]3[C@@H](O)[C@H](N)C[C@H](N)[C@H]3O[C@H]3O[C@H](CN)[C@@H](O)[C@H](O)[C@H]3N)O[C@@H]2CO)[C@H](N)[C@@H](O)[C@@H]1O [FRAMYCETIN]
0: HepSE_bilirubinemia ([1]; Liver) | HepSE_cholecystitis ([2]; Liver) | HepSE_cholelithiasis ([3]; Liver) | HepSE_cirrhosis ([4]; Liver) | HepSE_elevated liver function tests ([5]; Liver) | HepSE_hepatic failure ([6]; Liver) | HepSE_hepatic necrosis ([7]; Liver) | HepSE_hepatitis ([8]; Liver) | HepSE_hepatomegaly ([9]; Liver) | HepSE_jaundice ([10]; Liver) | HepSE_liver disease ([11]; Liver) | HepSE_liver fatty ([12]; Liver) | HepSE_liver function tests abnormal ([13]; Liver) | HepSE_Combined Scores ([14]; Liver)

CN[C@@H]1CCc2[nH]c3ccc(C(N)=O)cc3c2C1 [FROVATRIPTAN]
0: HepSE_bilirubinemia [1] | HepSE_cholecystitis [2] | HepSE_cholelithiasis [3] | HepSE_cirrhosis [4] | HepSE_elevated liver function tests [5] | HepSE_hepatic failure [6] | HepSE_hepatic necrosis [7] | HepSE_hepatitis [8] | HepSE_hepatomegaly [9] | HepSE_jaundice [10] | HepSE_liver disease [11] | HepSE_liver fatty [12] | HepSE_liver function tests abnormal [13] | HepSE_Combined Scores [14]

C[C@]12CC[C@@H]3c4ccc(O)cc4C[C@@H](CCCCCCCCC[S+]([O-])CCCC(F)(F)C(F)(F)F)[C@H]3[C@@H]1CC[C@@H]2O (some centres not stated) [FULVESTRANT]
0: HepSE_bilirubinemia [1] | HepSE_cholecystitis [2] | HepSE_cholelithiasis [3] | HepSE_cirrhosis [4] | HepSE_elevated liver function tests [5] | HepSE_hepatic failure [6] | HepSE_hepatic necrosis [7] | HepSE_hepatitis [8] | HepSE_hepatomegaly [9] | HepSE_jaundice [10] | HepSE_liver disease [11] | HepSE_liver fatty [12] | HepSE_liver function tests abnormal [13] | HepSE_Combined Scores [14]

NCC1(CC(=O)O)CCCCC1 [GABAPENTIN]
1: HepSE_cholecystitis [2] | HepSE_cholelithiasis [3] | HepSE_elevated liver function tests [5] | HepSE_hepatic failure [6] | HepSE_hepatitis [8] | HepSE_hepatomegaly [9] | HepSE_jaundice [10] | HepSE_liver function tests abnormal [13]
8: HepSE_Combined Scores [14]
0: HepSE_bilirubinemia [1] | HepSE_cirrhosis [4] | HepSE_hepatic necrosis [7] | HepSE_liver disease [11] | HepSE_liver fatty [12]

O=C[C@H](O)[C@@H](O)[C@@H](O)[C@H](O)CO [GALACTOSE]
0: HepSE_bilirubinemia [1] | HepSE_cholecystitis [2] | HepSE_cholelithiasis [3] | HepSE_cirrhosis [4] | HepSE_elevated liver function tests [5] | HepSE_hepatic failure [6] | HepSE_hepatic necrosis [7] | HepSE_hepatitis [8] | HepSE_hepatomegaly [9] | HepSE_jaundice [10] | HepSE_liver disease [11] | HepSE_liver fatty [12] | HepSE_liver function tests abnormal [13] | HepSE_Combined Scores [14]

COc1ccc2c3c1O[C@H]1C[C@@H](O)C=C[C@@]31CCN(C)C2 [GALANTAMINE]
1: HepSE_hepatitis [8] | HepSE_Combined Scores [14]
0: HepSE_bilirubinemia [1] | HepSE_cholecystitis [2] | HepSE_cholelithiasis [3] | HepSE_cirrhosis [4] | HepSE_elevated liver function tests [5] | HepSE_hepatic failure [6] | HepSE_hepatic necrosis [7] | HepSE_hepatomegaly [9] | HepSE_jaundice [10] | HepSE_liver disease [11] | HepSE_liver fatty [12] | HepSE_liver function tests abnormal [13]

NCCCC(=O)O [GAMMA-AMINOBUTYRIC ACID]
0: HepSE_bilirubinemia [1] | HepSE_cholecystitis [2] | HepSE_cholelithiasis [3] | HepSE_cirrhosis [4] | HepSE_elevated liver function tests [5] | HepSE_hepatic failure [6] | HepSE_hepatic necrosis [7] | HepSE_hepatitis [8] | HepSE_hepatomegaly [9] | HepSE_jaundice [10] | HepSE_liver disease [11] | HepSE_liver fatty [12] | HepSE_liver function tests abnormal [13] | HepSE_Combined Scores [14]

Nc1nc(O)c2ncn(COC(CO)CO)c2n1 [GANCICLOVIR]
0: HepSE_bilirubinemia [1] | HepSE_cholecystitis [2] | HepSE_cirrhosis [4] | HepSE_elevated liver function tests [5] | HepSE_hepatic necrosis [7] | HepSE_hepatomegaly [9] | HepSE_liver disease [11] | HepSE_liver fatty [12] | HepSE_liver function tests abnormal [13]
1: HepSE_cholelithiasis [3] | HepSE_hepatic failure [6] | HepSE_hepatitis [8] | HepSE_jaundice [10]
4: HepSE_Combined Scores [14]
